In patent US11642343B2, “Methods of treating splenomegaly” (Telios Pharma, Inc., priority 2020, dated 2023):

Legend:
MV-411 cells = experiment: Fibronectin release: detachment of cells from fibronectin-coated plates; assay type: cell-based; conditions: MV-411 cells on fibronectin-coated plates; 1, 2, or 5 μm for two hours at 37° C.; CellTiter Glo; FIG. 2
Procedure: Fibronectin is an important component of the microenvironment extracellular matrix and attaches to cells through VLA-4 (integrin α4β1). Detachment of cells from fibronectin after exposure to Compound No. 128 was assessed by plating 1×10^6 MV-411 cells on fibronectin-coated plates (3 replicates). The cells were allowed to adhere overnight at 37° C. and then unadhered cells were washed away. Next, attached cells were treated with DMSO or Compound No. 128 (1, 2, or 5 μm) for two hours at 37° C. Detached cells were then collected and cell numbers determined using CellTiter Glo.

[1] = tested on: CD11a (LFA-1), CD62L (L-selectin), and CD49d (VLA-4); assay type: in vivo, human; conditions: monocytes from blood of treated COVID-19 patients; FIG. 3
stimulated whole blood = experiment: In vitro cytokine production in stimulated whole blood; assay type: cell-based; conditions: 24 hour incubation, FIG. 4
Procedure: The impact on in vitro cytokine production after exposure to Compound No. 128 was assessed in stimulated whole blood following a 24 hour incubation.

BTK [2] = biological target: T1, BTK (Homo sapiens, UniProt Q06187); experiment: Inhibition of BTK phosphorylation (activation) in healthy B-cells; assay type: cell-based; design: endogenous in cells; conditions: healthy PBMC incubated two hours with 10 minutes of αIgM and H2O2 stimulation
Procedure: (§1) Inhibition of BTK phosphorylation (activation) by Compound No. 128 (1-(4-(((6-amino-5-(4-phenoxyphenyl)pyrimidin-4-yl)amino)methyl)-4-fluoropiperidin-1-yl)prop-2-en-1-one) was assessed in healthy B-cells and in myeloid cell lines MOLM-13 basal and Hel-92 basal. Compound No. 128 was incubated with the myeloid cells lines for two hours with no stimulation and with healthy PBMC5 for two hours with 10 minutes of αIgM and H2O2 stimulation.

BTK [3] = biological target: T1, BTK; experiment: Inhibition of BTK phosphorylation (activation) in myeloid cell line MOLM-13 basal; assay type: cell-based; design: endogenous in cells; host or cells: MOLM-13; conditions: incubated two hours with no stimulation
Procedure: as §1

BTK [4] = biological target: T1, BTK; experiment: Inhibition of BTK phosphorylation (activation) in myeloid cell line Hel-92 basal; assay type: cell-based; design: endogenous in cells; host or cells: MOLM-13; conditions: incubated two hours with no stimulation
Procedure: as §1

Hel-92 (V617F mut) cells = experiment: In vitro inhibition of cell migration towards SDF-1 (CXCL12) through a permeable membrane; conditions: FIG. 1A and 1B

T1 sequence (Q06187 whole entry): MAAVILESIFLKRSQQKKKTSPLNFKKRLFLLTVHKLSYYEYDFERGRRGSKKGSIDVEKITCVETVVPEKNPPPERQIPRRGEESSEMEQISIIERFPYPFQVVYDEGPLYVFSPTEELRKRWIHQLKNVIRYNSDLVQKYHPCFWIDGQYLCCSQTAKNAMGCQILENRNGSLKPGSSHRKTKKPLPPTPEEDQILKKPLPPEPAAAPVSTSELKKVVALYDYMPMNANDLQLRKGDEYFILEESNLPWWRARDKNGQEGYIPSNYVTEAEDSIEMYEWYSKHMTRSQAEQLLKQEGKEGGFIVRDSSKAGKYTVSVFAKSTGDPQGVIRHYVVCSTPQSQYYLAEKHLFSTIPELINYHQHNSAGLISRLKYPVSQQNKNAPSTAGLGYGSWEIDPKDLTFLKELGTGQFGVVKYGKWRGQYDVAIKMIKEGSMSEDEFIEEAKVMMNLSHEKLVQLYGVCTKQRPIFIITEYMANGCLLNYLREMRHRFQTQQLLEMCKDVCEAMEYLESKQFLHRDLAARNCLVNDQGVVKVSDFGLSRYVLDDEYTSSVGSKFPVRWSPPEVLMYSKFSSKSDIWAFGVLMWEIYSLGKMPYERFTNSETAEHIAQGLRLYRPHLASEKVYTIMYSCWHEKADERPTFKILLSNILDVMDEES

## C=CC(=O)N1CCC(F)(CNc2ncnc(N)c2-c2ccc(Oc3ccccc3)cc2)CC1 [Compound No. 128, 1-(4-(((6-amino-5-(4-phenoxyphenyl)pyrimidin-4-yl)amino)methyl)-4-fluoropiperidin-1-yl)prop-2-en-1-one]
MV-411 cells
  detachment of cells from fibronectin: cells detached from fibronectin
[1]
  levels of surface molecules CD11a (LFA-1), CD62L (L-selectin), CD49d (VLA-4): reduced levels of surface molecules in some patients
Stimulated whole blood
  cytokine and chemokine production: decreased cytokine and chemokine production upon cellular stimulation
BTK [2]
  EC50: 16.9 nM
BTK [3]
  EC50: 21.4 nM
BTK [4]
  EC50: 19.7 nM
Hel-92 (V617F mut) cells
  inhibition of cell migration towards SDF-1: inhibit cell migration towards SDF-1
